According to article PMC4649711, “In1-ghrelin splicing variant is overexpressed in pituitary adenomas and increases their aggressive features” (Scientific Reports, 2015):
“Also recorded” adds a separate entry of the source.

Tests used:
[1] = system: GH-omas (tumoral pituitary cells); experiment: free cytosolic calcium kinetics ([Ca^2+]i), GH-oma cells; type: cell-based, human
Description: (§1) Pituitary adenoma specimens were dispersed into single cells by enzymatic and mechanical disruption and cultured onto tissue culture plates in serum containing medium, as previously described. Briefly, pituitary samples were resected by endoscopic transsphenoidal surgery and transferred to sterile cold (4°C) culture medium (S-MEM, Gibco, Madrid, Spain) supplemented with 0.1% BSA, 0.01% L-glutamine, 1% antibiotic-antimycotic solution, and 2.5% HEPES. Samples were minced under sterile conditions into 1–2 mm^3 pieces. Some pieces were stored at −80°C for posterior RNA isolation and, when possible, the remaining tissue samples were washed and incubated in 30 mL S-MEM medium supplemented 0.3% trypsin (Beckson, Dickinson and Company, Sparks, MD, USA) in a spinner flask (Bellco Glass, Vineland, NJ, USA) for 2 h of gentle shaking at 37°C and then, incubation was continued for another 5 min in presence of 1 mg of DNAse I (Roche, Mannheim, Germany). Dispersed cells were decanted by centrifugation and then, by repeated aspiration into a smoothtipped glass Pasteur pipette. […]
As previously reported, changes in [Ca^2+]i in single cells were measured using fura-2AM (50,000 cells/coverslip; Molecular Probes, Eugene, OR)[23][30]. […] Cells were examined for changes in [Ca^2+]i after the appropriate treatment (native ghrelin, In1-19 or In1-40) using a 40× objective with Immersion Oil Type NF (Nikon, Tokyo, Japan) while exposed to alternating 340–380 nm light beams, and the intensity of light emission at 505 nm was measured every 5 seconds using MetaFluor Software (Imaging Corp., West Chester, PA, USA). […] Changes in [Ca^2+]i in CHO-K1 cell line expressing recombinant GHSR1a or GHSR1b receptor were measured using Calcium 4 Explorer Kit (Molecular Devices, Sunnyvale, CA, USA). […] Fluorescent signals were then monitored using the FLIPR Tetra (Molecular Devices, Sunnyvale, CA, USA) during which cells were stimulated with compounds. Dose-response curves were analyzed using GraphPad Prism v5.04 (La Jolla, CA, USA).

GH-omas [2] = experiment: apoptotic rate in GH-omas; type: cell-based, human; settings: 100 nM, 12–14 h, Annexin V/Propidium Iodide, flow cytometry, n = 3
Description: as §1, with “pipette. Cells suspensions were washed once in 4.5 g/L glucose containing DMEM medium (Gibco, Madrid, Spain) supplemented with 0.1% BSA, 0.01% L-glutamine, 1% antibiotic-antimycotic solution, and 2.5% HEPES.” for “pipette.”

GH-omas [3] = experiment: GH secretion from GH-oma primary cultures; type: cell-based, human; settings: 100 nM; 4 h and 24 h; ELISA; % of vehicle; n = 3–7
Description: Pituitary adenoma specimens were dispersed into single cells by enzymatic and mechanical disruption and cultured onto tissue culture plates in serum containing medium, as previously described. Briefly, pituitary samples were resected by endoscopic transsphenoidal surgery and transferred to sterile cold (4°C) culture medium (S-MEM, Gibco, Madrid, Spain) supplemented with 0.1% BSA, 0.01% L-glutamine, 1% antibiotic-antimycotic solution, and 2.5% HEPES. Samples were minced under sterile conditions into 1–2 mm^3 pieces. […]
To examine the effects of ghrelin system components (4- and/or 24 h-incubation) on pituitary hormone release from primary pituitary adenoma and/or AtT-20 cell line, 100,000–200,000 cell/well were used. As previously reported, hormone concentrations were measured in the culture media derived from human samples according to the pituitary adenoma type using commercial ELISAs [growth hormone, GH; adrenocorticotropin, ACTH; and prolactin, PRL (reference numbers: EIA-3552, EIA-3647 and EIA-1291, respectively; DRG, Mountainside, NJ, USA)] following the manufacturer's instructions. […]

GH-omas [4] = experiment: cell viability of GH-oma primary cultures, peptide treatment; type: cell-based, human; settings: 100 nM, alamar-blue
Description: Pituitary adenoma specimens were dispersed into single cells by enzymatic and mechanical disruption and cultured onto tissue culture plates in serum containing medium, as previously described. Briefly, pituitary samples were resected by endoscopic transsphenoidal surgery and transferred to sterile cold (4°C) culture medium (S-MEM, Gibco, Madrid, Spain) supplemented with 0.1% BSA, 0.01% L-glutamine, 1% antibiotic-antimycotic solution, and 2.5% HEPES. Samples were minced under sterile conditions into 1–2 mm^3 pieces. Some pieces were stored at −80°C for posterior RNA isolation and, when possible, the remaining tissue samples were washed and incubated in 30 mL S-MEM medium supplemented 0.3% trypsin (Beckson, Dickinson and Company, Sparks, MD, USA) in a spinner flask (Bellco Glass, Vineland, NJ, USA) for 2 h of gentle shaking at 37°C and then, incubation was continued for another 5 min in presence of 1 mg of DNAse I (Roche, Mannheim, Germany). Dispersed cells were decanted by centrifugation and then, by repeated aspiration into a smoothtipped glass Pasteur pipette. Cells suspensions were washed once in 4.5 g/L glucose containing DMEM medium (Gibco, Madrid, Spain) supplemented with 0.1% BSA, 0.01% L-glutamine, 1% antibiotic-antimycotic solution, and 2.5% HEPES. Cell number and viability was estimated by the Trypan blue exclusion test in Neubauer chamber, where viability was always 90–100%.
As previously reported, cell viability was estimated using alamar-blue reagent (10,000 cells/well-plate; Biosource International, Camarillo, CA, USA)[30][50][52]. Briefly, cells were serum-starved for 12–16 h before the measurements and treated with serum-free medium containing 10% alamar-blue for 3 h. Reduction of alamar-blue reagent was quantified exciting at 560 nm and reading at 590 nm using the FlexStation III system (Molecular Devices, Sunnyvale, CA, USA). Subsequently, media was replaced by serum-containing alamar-blue free medium and incubated for additional 24–72 h, measuring the alamar-blue reduction every 24 h. […]

PRL-omas = settings: previous studies; cited from earlier work
Source text: Conversely, In1-ghrelin peptides only elicited [Ca^2+]i responses in a negligible percentage of PRL-oma cells, which is in accordance with the lack of effect of these peptides in the modulation of PRL release. However, In1-40 but not In1-19 p ...

[5] = system: GHSR-lacking cells (e.g. prostate cell lines); settings: cited from earlier work
pituitary adenoma cells = experiment: cell viability in all pituitary adenoma subtypes, peptide treatment; type: cell-based, human; settings: 100 nM, 24-, 48- and/or 72-h, alamar-blue
Description: as §1
As previously reported, cell viability was estimated using alamar-blue reagent (10,000 cells/well-plate; Biosource International, Camarillo, CA, USA)[30][50][52]. […] Reduction of alamar-blue reagent was quantified exciting at 560 nm and reading at 590 nm using the FlexStation III system (Molecular Devices, Sunnyvale, CA, USA). […]

[6] = system: rat pituitary somatotrope cell lines; set-up: method as in PMID 15296479; settings: cited from earlier work

Q: Which results are given for CCCCCCCC(=O)OC[C@H](NC(=O)[C@H](CO)NC(=O)CN)C(=O)N[C@@H](Cc1ccccc1)C(=O)N[C@@H](CC(C)C)C(=O)N[C@@H](CO)C(=O)N1CCC[C@H]1C(=O)N[C@@H](CCC(=O)O)C(=O)N[C@@H](Cc1c[nH]cn1)C(=O)N[C@@H](CCC(N)=O)C(=O)N[C@@H](CCCNC(=N)N)C(=O)N[C@H](C(=O)N[C@@H](CCC(N)=O)C(=O)N[C@@H](CCC(N)=O)C(=O)N[C@@H](CCCNC(=N)N)C(=O)N[C@@H](CCCCN)C(=O)N[C@@H](CCC(=O)O)C(=O)N[C@@H](CO)C(=O)N[C@@H](CCCCN)C(=O)N[C@@H](CCCCN)C(=O)N1CCC[C@H]1C(=O)N1CCC[C@H]1C(=O)N[C@@H](C)C(=O)N[C@@H](CCCCN)C(=O)N[C@@H](CC(C)C)C(=O)N[C@@H](CCC(N)=O)C(=O)N1CCC[C@H]1C(=O)N[C@@H](CCCNC(=N)N)C(=O)O)C(C)C [AG]?
A: [Ca^2+]i response (in words) ([1]; fura-2AM): doubling the [Ca^2+]i levels; also recorded: increased [Ca^2+]i; % cell resp. ([1]; proportion of responsive cells, fura-2AM single-cell imaging): 74%; # samples ([1]; responsive/tested samples, fura-2AM single-cell imaging, 1500 / 983 / 520 cells analyzed for AG / In1-19 / In1-40, peptides 100 nM (abstract)): 27/27; apoptotic rate (GH-omas [2]): did not alter apoptotic rate; GH secretion (GH-omas [3]): similarly and significantly, increased GH secretion; also recorded: promoted GH secretion; cell viability (GH-omas [4]; 48 h, n = 5–17): significantly increased; cell viability (GH-omas [4]; 72 h, n = 5–17): significantly increased; cell viability (GH-omas [4]; time not given): modestly increased GH-oma cell viability; PRL secretion (PRL-omas): increases PRL secretion; responses in GHSR-lacking cells [5]: have been found in GHSR-lacking cells; cell viability (pituitary adenoma cells): increased cell viability in vitro in all pituitary adenoma subtypes; cell proliferation [6]: can stimulate cell proliferation
